Experiments:
[1] = system: Mouse colon cancer CT26 cells; experiment: Induction of immunogenic cell death targets by Crizotinib and IN10018 in CT26 cells (Example 7); format: cell-based; conditions: CT26, 48 hours; IN10018 5 μM, Crizotinib 3 μM
Procedure: CT26 cells were cultured in monolayer in vitro, and the culture conditions were: RPMI-1640 medium with 10% fetal bovine serum, 37° C. and 5% CO2. Trypsin was used for routine digestion and passage treatment two or three times a week. When the cells were in exponential growth period and the adherent confluence reached 80%-90%, the cells were collected and plated.
CT26 cells were digested with trypsin, then collected and counted. According to the counting results, the cells were diluted with RPMI-1640+10% FBS, and the dilution concentration was 50,000 cells per ml. Then, the cells were plated on 24-well culture plates, and 1 ml of cell suspension (50,000 cells) was laid in each well. After plating, the cells were cultured in 37° C. and 5% CO2 incubator. […]
After the cells were washed twice with flow buffer (DPBS+2% FBS), the cells in each group were divided into two parts on average, one of which was added with 0.5 μl of AF647 anti-Calreticulin antibody in each well, then mixed well, and incubated in the dark for 20 minutes at 4° C. […] The cells were cultured at room temperature in the dark for 15 minutes, and then analyzed by flow cytometry.
Data analysis: After the assay, the cell positive rate was analyzed by Flowjo(V10) software.

[2] = system: mouse colon cancer CT26 cells allograft tumor; experiment: In vivo anti-tumor efficacy, BALB/c mouse subcutaneous allograft tumor model of CT26 cells (Example 9)
Procedure: Mouse colorectal cancer cell CT26 (from Nanjing Kebai Biotechnology Co., Ltd., article number: CBP60043) was maintained and passaged by InxMed (Nanjing) Co., Ltd. Cells were cultured in monolayer in vitro, and the culture conditions were RPMI-1640 medium with 10% fetal bovine serum and 37° C. 5% CO2 incubator. Trypsin-EDTA was used for routine digestion and passage two or three times a week. When the cells were in exponential growth period and the saturation reached 80%-90%, the cells were collected, counted and inoculated.
0.1 mL of cell suspension containing 3×10^5 cells was subcutaneously inoculated on the right back of each mouse. When the tumor volume reached about ˜57 mm^3 (13th day after cell inoculation), mice were randomly divided into groups according to the tumor volume and administered.
The assay index was to investigate whether the tumor growth is inhibited, delayed or cured. The diameter of tumor was measured with vernier caliper, 2˜3 times a week. The formula for calculating the tumor volume is: V=0.5×a×b^2, where a and b represent the long and short diameters of the tumor respectively.
The anti-tumor effect of the compound was evaluated by TGI (%), which reflected the tumor growth inhibition rate. According to the tumor volume on the first day after grouping, the tumor growth inhibition rate TGI (%) was calculated according to the following formula: […]
Statistical analysis was based on the tumor volume at the end of the assay and analyzed by Prism Graphpad software. The comparison between multiple groups was analyzed by Two-way ANOVA and Fisher's LSD test. P<0.05 is considered to have significant difference.

KPL tumor = experiment: Anti-tumor efficacy in KPL model in C57BL/6 mice (Example 12); format: in vivo; conditions: MRTX133 5 mg/kg IP BID, ANTI MOUSE PD-1 10 mg/kg IP BIW, IN10018 25 mg/kg PO QD
Procedure: 45 female C57BL/6 mice, 6-8 weeks old and 19 to 25 g in weight, were used in this study. The mice, marked by ear coding, were kept in Individual Ventilation Cages at constant temperature (20-26° C.) and humidity (40%-70%) with 3 animals in each cage. Animals had free access to irradiation sterilized dry granule food (Keao Xieli (Tianjin) Feed Co., Ltd) and sterile drinking water during the entire study period.
KPL cells were maintained in vitro in RPMI-1640 medium supplemented with 10% FBS and 1% P.S. at 37° C. in an atmosphere of 5% CO2 in air. The tumor cells were routinely sub-cultured three times weekly. KPL cells growing in an exponential growth phase were resuspended in PBS and adjusted concentration to 2×10^6/mL for tumor injection.
Each mouse was injected subcutaneously at the right flank with 0.1 mL KPL cell suspension (0.2×10^6) for tumor development. When tumor reach around 60 mm^3 on the 7th day after cell injection, mice were randomly grouped according to tumor volume, followed by drug administration. The day of grouping was defined as day 0.
The major endpoint is to see if the tumor growth can be delay or mice can be cured. Tumor sizes were measured three times weekly in two dimensions using a caliper (No. 105688, sylvac Dantsin), and the volume was expressed in mm^3 using the formula: V=0.5×a×b^2 (a, long diameters; b, short diameters). The tumor sizes were then used for the calculations of T/C (%) values. T/C (%) was calculated using the formula: T/C (%)=(Ti−T0)/(Vi−V0)×100%, Ti was the average tumor volume of a treatment group on a given day, T0 was the average tumor volume of the treatment group on the first day of treatment, Vi was the average tumor volume of the vehicle control group on the same day with Ti, and V0 was the average tumor volume of the vehicle group on the first day of treatment.
TGI was calculated for each group using the formula: TGI (%)=100%-T/C (%).
Efficacy study was euthanized on D28 after treatment according to requirement, tumors were collected and photographed, tumor weight were recorded meanwhile. Tumors were selected from each group and stored in 10% Formalin for the following research.
Summary statistics, including mean and the standard error of the mean (SEM), are provided for the tumor volume of each group at each time point. Statistical analysis of difference in tumor volume and tumor weight versus Vehicle group were conducted on the data obtained at each time point. T-test was performed to compare tumor volume among groups. A value of p<0.05 was considered to be statistically significant.

Compound: COc1cc(C(=O)NC2CCN(C)CC2)c(F)cc1Nc1ncc(C(F)(F)F)c(Oc2cccc3c2C(=O)N(C)C3)n1 [IN10018]
- cell state under a microscope (cell death; cell viability) [1]: better

Compound: C#Cc1c(F)ccc2cc(O)cc(-c3ncc4c(N5CC6CCC(C5)N6)nc(OC[C@@]56CCCN5C[C@H](F)C6)nc4c3F)c12 [MRTX1133]
- Tumor volume on Day 0 ([2]; Day 0, at grouping, mean ± SD): 57.4 ± 10.8 mm^3
- TGI (%) ([2]; Day 14, MRTX1133 5 mg/kg IP QD, IN10018 25 mg/kg PO QD, TIGIT 3 mg/kg IP BIW): 63.2%
- Tumor volume on Day 14 ([2]; Day 14 after group administration, MRTX1133 5 mg/kg IP QD, IN10018 25 mg/kg PO QD, TIGIT 3 mg/kg IP BIW, mean ± SD): 1067.8±302.1 mm^3
- Tumor volume on Day 16 ([2]; Day 16 after group administration, MRTX1133 5 mg/kg IP QD, IN10018 25 mg/kg PO QD, TIGIT 3 mg/kg IP BIW, mean ± SD): 1672.1±548.1 mm^3
- T/C (%) (KPL tumor; Day 3 after treatment): 15.72%
- TGI (%) (KPL tumor; Day 3 after treatment): 84.28%
- T/C (%) (KPL tumor; Day 7 after treatment): −50.80%
- TGI (%) (KPL tumor; Day 7 after treatment): 150.80%
- T/C (%) (KPL tumor; Day 10 after treatment): 2.69%
- TGI (%) (KPL tumor; Day 10 after treatment): 97.31%
- T/C (%) (KPL tumor; Day 14 after treatment): 30.94%
- TGI (%) (KPL tumor; Day 14 after treatment): 69.06%
- T/C (%) (KPL tumor; Day 17 after treatment): 56.17%
- TGI (%) (KPL tumor; Day 17 after treatment): 43.83%
- T/C (%) (KPL tumor; Day 21 after treatment): 58.22%
- TGI (%) (KPL tumor; Day 21 after treatment): 41.78%
- T/C (%) (KPL tumor; Day 24 after treatment): 61.87%
- TGI (%) (KPL tumor; Day 24 after treatment): 38.13%
- T/C (%) (KPL tumor; Day 28 after treatment): 71.43%
- TGI (%) (KPL tumor; Day 28 after treatment): 28.57%
- tumor volume (KPL tumor; day 28): 579.34 mm^3
